Experiment [1] concerns the target T1, Dual specificity tyrosine-phosphorylation-regulated kinase 3 (Homo sapiens, UniProt O43781).
T1 sequence (O43781 whole entry): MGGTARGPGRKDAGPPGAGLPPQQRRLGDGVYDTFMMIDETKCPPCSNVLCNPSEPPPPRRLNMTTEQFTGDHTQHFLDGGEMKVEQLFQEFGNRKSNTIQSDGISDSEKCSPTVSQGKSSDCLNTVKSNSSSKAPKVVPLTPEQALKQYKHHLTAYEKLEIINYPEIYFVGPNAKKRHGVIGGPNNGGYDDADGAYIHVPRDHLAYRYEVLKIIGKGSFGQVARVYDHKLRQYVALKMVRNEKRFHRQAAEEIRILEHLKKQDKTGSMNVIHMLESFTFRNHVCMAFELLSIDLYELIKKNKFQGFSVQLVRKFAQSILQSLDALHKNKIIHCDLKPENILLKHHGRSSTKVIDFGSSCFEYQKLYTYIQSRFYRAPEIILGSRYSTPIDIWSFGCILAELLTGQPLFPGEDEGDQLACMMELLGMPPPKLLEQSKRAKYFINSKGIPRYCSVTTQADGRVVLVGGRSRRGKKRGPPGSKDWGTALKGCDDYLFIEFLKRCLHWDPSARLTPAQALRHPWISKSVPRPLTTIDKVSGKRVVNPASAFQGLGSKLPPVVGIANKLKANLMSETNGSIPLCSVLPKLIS

Experiment [2] has as its target Glycogen synthase kinase-3 beta (Homo sapiens, UniProt P49841). The experiment is classed as cell-based, Sf9.
The target in experiment [3] is T2, Dual specificity tyrosine-phosphorylation-regulated kinase 2 (Homo sapiens, UniProt Q92630).
T2 sequence (Q92630 whole entry): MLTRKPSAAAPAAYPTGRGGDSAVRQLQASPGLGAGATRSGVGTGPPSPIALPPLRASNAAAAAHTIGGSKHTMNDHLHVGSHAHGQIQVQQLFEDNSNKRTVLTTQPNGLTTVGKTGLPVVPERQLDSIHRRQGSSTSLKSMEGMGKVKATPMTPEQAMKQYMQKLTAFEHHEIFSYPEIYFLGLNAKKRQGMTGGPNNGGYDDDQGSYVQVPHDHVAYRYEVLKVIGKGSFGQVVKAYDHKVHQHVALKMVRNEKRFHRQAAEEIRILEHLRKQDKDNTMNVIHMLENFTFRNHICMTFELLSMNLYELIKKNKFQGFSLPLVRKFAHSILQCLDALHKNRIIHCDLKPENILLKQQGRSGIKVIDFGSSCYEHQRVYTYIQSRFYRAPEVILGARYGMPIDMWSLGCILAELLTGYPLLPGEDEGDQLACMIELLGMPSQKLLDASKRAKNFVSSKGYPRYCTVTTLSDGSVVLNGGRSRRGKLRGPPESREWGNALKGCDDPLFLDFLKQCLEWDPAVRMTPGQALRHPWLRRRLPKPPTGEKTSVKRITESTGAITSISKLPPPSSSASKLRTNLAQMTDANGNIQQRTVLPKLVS

Experiment [4] deals with T3, Dual specificity tyrosine-phosphorylation-regulated kinase 4 (Homo sapiens, UniProt Q9NR20).
T3 sequence (Q9NR20 whole entry): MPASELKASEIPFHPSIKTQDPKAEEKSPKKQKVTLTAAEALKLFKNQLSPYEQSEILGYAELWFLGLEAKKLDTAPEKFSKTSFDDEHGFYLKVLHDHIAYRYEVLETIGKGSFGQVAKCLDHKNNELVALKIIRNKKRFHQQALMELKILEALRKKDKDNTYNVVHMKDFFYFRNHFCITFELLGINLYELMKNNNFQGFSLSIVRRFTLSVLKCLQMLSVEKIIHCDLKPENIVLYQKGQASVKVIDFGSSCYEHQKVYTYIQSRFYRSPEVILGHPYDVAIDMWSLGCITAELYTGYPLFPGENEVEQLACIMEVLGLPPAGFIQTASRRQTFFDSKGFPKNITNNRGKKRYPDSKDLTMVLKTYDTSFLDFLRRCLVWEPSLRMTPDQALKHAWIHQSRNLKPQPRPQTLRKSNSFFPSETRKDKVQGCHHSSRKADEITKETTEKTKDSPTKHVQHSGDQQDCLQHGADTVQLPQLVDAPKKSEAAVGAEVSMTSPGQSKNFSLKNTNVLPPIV

Experiment [5] deals with Dual specificity protein kinase CLK3 (Homo sapiens, UniProt P49761). It counts as cell-based, Sf9.
In experiment [6] the target is Dual specificity protein kinase CLK2 (Homo sapiens, UniProt P49760).
Experiment [7] has as its target Cyclin-dependent kinase 5/CDK5 activator 1 (Homo sapiens, UniProt Q00535). The experiment is classed as cell-based, Sf9.
Experiment [8] deals with Casein kinase I isoform epsilon (Homo sapiens, UniProt P49674).
The target of experiment [9] is Dual specificity protein kinase CLK4 (Homo sapiens, UniProt Q9HAZ1).

Broadly, the IC50 is the concentration needed to halve the response being measured. A lower IC50 goes with higher potency.

Molecules are shown by their SMILES.

Sequence of Dual specificity protein kinase CLK3 (P49761 whole entry): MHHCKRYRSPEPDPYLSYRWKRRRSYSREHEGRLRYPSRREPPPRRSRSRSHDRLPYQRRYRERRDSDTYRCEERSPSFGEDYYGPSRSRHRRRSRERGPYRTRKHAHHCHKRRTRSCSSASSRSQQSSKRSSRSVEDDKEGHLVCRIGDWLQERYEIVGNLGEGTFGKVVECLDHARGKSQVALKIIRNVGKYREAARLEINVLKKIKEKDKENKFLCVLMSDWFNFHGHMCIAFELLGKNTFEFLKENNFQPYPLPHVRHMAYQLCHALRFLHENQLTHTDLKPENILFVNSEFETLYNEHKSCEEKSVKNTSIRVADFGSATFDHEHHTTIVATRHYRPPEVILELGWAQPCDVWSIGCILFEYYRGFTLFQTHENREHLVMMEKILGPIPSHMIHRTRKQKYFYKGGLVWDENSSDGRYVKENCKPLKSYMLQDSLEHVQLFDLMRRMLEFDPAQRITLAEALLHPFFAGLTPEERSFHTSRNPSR
Sequence of Cyclin-dependent kinase 5/CDK5 activator 1 (Q00535 whole entry, canonical isoform): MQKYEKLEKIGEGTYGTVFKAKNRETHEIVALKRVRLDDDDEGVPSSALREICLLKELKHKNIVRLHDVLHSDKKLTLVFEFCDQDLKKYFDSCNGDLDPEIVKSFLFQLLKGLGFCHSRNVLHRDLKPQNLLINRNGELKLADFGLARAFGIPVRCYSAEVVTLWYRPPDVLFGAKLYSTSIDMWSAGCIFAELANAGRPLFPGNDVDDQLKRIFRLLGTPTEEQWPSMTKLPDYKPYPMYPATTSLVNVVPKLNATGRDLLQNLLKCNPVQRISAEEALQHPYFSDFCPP
Sequence of Cyclin-dependent kinase 5/CDK5 activator 1 (Q15078 whole entry, further chain, canonical isoform): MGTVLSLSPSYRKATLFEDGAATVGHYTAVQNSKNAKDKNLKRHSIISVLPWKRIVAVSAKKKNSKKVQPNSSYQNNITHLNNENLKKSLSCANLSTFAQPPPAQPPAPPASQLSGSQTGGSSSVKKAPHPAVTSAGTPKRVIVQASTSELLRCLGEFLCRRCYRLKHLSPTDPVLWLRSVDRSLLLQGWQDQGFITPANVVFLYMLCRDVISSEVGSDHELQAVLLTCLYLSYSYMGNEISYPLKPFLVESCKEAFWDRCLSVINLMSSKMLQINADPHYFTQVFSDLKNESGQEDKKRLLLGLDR
Sequence of Dual specificity protein kinase CLK4 (Q9HAZ1 whole entry): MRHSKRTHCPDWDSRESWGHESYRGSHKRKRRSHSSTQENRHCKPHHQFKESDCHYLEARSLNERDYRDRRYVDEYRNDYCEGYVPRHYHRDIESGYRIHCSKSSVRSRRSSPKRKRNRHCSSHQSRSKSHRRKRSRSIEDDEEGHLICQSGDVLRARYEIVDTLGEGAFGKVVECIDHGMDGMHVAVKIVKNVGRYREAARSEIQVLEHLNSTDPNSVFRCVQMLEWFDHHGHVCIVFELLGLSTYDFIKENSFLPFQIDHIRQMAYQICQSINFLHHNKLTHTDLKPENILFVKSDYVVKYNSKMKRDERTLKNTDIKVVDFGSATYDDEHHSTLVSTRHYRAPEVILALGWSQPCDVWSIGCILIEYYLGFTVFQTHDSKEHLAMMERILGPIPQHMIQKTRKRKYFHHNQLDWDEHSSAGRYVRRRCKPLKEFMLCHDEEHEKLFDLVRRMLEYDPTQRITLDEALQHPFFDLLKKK
Sequence of Dual specificity protein kinase CLK2 (P49760 whole entry): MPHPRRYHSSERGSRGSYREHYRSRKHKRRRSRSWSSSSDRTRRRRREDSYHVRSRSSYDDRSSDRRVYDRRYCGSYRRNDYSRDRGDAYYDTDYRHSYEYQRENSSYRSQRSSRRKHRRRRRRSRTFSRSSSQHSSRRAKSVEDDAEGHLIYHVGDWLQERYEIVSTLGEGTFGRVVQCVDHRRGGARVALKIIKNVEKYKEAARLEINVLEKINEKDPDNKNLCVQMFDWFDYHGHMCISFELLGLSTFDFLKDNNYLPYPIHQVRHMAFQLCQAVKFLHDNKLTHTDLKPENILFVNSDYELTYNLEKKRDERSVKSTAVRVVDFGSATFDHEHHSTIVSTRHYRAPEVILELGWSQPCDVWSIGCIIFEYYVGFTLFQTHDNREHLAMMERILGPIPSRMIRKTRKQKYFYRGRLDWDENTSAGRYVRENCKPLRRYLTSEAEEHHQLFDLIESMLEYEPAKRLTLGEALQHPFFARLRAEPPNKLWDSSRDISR
Sequence of Glycogen synthase kinase-3 beta (P49841 whole entry): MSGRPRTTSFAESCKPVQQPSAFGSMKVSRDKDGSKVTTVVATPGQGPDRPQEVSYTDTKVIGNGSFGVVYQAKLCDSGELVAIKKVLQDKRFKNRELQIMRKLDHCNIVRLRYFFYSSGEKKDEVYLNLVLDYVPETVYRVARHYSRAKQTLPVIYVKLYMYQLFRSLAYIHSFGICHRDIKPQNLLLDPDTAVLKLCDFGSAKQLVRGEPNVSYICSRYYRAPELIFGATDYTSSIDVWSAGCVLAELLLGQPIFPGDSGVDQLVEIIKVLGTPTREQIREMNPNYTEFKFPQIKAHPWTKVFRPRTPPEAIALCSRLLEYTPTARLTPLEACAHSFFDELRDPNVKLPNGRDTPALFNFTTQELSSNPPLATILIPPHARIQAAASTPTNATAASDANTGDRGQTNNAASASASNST
Sequence of Casein kinase I isoform epsilon (P49674 whole entry, canonical isoform): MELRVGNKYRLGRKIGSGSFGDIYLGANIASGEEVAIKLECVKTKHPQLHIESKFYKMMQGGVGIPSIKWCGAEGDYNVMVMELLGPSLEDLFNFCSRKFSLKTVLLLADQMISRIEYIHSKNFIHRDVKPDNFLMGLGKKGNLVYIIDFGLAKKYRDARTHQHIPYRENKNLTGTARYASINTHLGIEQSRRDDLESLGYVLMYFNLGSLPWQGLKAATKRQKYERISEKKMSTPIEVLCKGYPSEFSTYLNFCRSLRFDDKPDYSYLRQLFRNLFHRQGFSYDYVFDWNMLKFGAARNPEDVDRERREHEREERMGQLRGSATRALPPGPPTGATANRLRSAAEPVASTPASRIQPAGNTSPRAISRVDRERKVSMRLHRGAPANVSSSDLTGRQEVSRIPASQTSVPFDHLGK

Take `CC(C)[C@@H]1CC[C@@H](C)C[C@H]1NC1=N/C(=C\c2ccc3ncsc3c2)C(=O)N1`: the IC50 is 2.45 µM in [1]; greater than 10 µM in experiment [2]; 9.72 µM in experiment [3]; 2.56 µM in experiment [4]; 2.74 µM in experiment [5]; 0.211 µM in [6]. Also, the figures for the IC50 in [7], in [8] and in experiment [9] were greater than 10 µM, greater than 10 µM and 0.147 µM, respectively.

`CO[C@H]1CC[C@H](NC2=N/C(=C\c3ccc4ncsc4c3)C(=O)N2)CC1`: the IC50 in experiment [1] is 1.9 µM; in experiment [2] it was 13 µM; in experiment [3] it was 2.3 µM; in [4], 2.6 µM; in [5], 0.88 µM; in experiment [7], greater than 10 µM. Also, the IC50 in experiment [8] was greater than 10 µM; in experiment [9] it was 0.024 µM.

In the case of `CO[C@H]1Cc2ccccc2[C@H]1NC1=N/C(=C\c2ccc3ncsc3c2)C(=O)N1` (racemic), the IC50 is greater than 10 µM in experiment [1]; greater than 10 µM in experiment [2]; 5.17 µM in experiment [3]; greater than 10 µM in experiment [5]; 3.48 µM in experiment [6]; greater than 10 µM in experiment [7]. Besides, the values for the IC50 in experiment [8] and in experiment [9] were greater than 10 µM and 0.1 µM, respectively.

On to `O=C1NC(Nc2ncccn2)=N/C1=C\c1ccc2ncsc2c1`, for which the IC50 was 4.03 µM in experiment [1]; 7.74 µM in [2]; 2.39 µM in [3]; 2.26 µM in experiment [5]; 0.627 µM in experiment [6]; greater than 10 µM in [7]. Besides, the results for the IC50 in experiment [8] and in experiment [9] were greater than 10 µM and 0.034 µM, respectively.

For `CN1CCC(CNC2=N/C(=C\c3ccc4ncsc4c3)C(=O)N2)CC1`, the IC50 in [1] was 1.59 µM; in experiment [2], greater than 10 µM; in experiment [3] it was greater than 10 µM; in [4], greater than 10 µM; in experiment [5], greater than 10 µM; in [6] it was 3.66 µM. The results for the IC50 in experiment [7], in experiment [8] and in experiment [9] were greater than 10 µM, greater than 10 µM and 1.5 µM, respectively.

Consider `O=C1NC(N[C@@H]2CN3CCC2CC3)=N/C1=C\c1ccc2ncsc2c1`, for which the IC50 in experiment [1] was 0.483 µM; in [2], greater than 10 µM; in experiment [5] it was 4.35 µM; in [6], 1.17 µM; in experiment [7] it was greater than 10 µM; in [9] it was 0.169 µM.

Turning to `Cc1ccc(CNC2=N/C(=C\c3ccc4ncsc4c3)C(=O)N2)cc1C`, the IC50 was greater than 10 µM in experiment [1]; greater than 10 µM in [2]; greater than 10 µM in experiment [3]; 1.24 µM in experiment [5]; 0.031 µM in experiment [6]; greater than 10 µM in [7]. Besides, the half-inhibitory concentration (IC50) in experiment [8] is greater than 10 µM; in [9] it was 0.014 µM.

`CN1CCC2(CC1)CC(NC1=N/C(=C\c3ccc4ncsc4c3)C(=O)N1)C2`: the IC50 was 0.403 µM in [1]; greater than 10 µM in experiment [2]; 4.47 µM in [3]; 7.46 µM in experiment [5]; 0.851 µM in [6]; greater than 10 µM in [7]. The figures for the IC50 in experiment [8] and in experiment [9] were greater than 10 µM and 0.107 µM, respectively.

As for `O=C1NC(NCC2CCOCC2)=N/C1=C\c1ccc2ncsc2c1`, the IC50 was 1.13 µM in experiment [1]; greater than 10 µM in [2]; 0.811 µM in experiment [3]; 1.29 µM in experiment [4]; 0.698 µM in experiment [5]; 0.094 µM in [6]. Further, the IC50 in experiment [7] was greater than 10 µM; in experiment [9], 0.012 µM.

For the compound `COC(=O)[C@@H](CC(C)C)NC1=N/C(=C\c2ccc3ncsc3c2)C(=O)N1`, the IC50 in experiment [1] came to 5.07 µM; in [2], 1.34 µM; in [3], 2.37 µM; in experiment [4] it was 2.26 µM; in experiment [5] it was 0.852 µM; in experiment [6] it was 0.378 µM. Besides, the IC50 in experiment [7] was greater than 10 µM; in [9], 0.034 µM.

Consider `Cc1ccc(NC2=N/C(=C\c3ccc4ncsc4c3)C(=O)N2)cc1F`, for which the IC50 is 3.06 µM in [1]; greater than 10 µM in experiment [2]; 6.53 µM in experiment [3]; greater than 10 µM in experiment [5]; 3.52 µM in [6]; greater than 10 µM in [7]. The IC50 in [8] was greater than 10 µM; in experiment [9], 0.071 µM.

Take `CN1CCC(NC2=N/C(=C\c3ccc4ncsc4c3)C(=O)N2)C1=O` (racemic): the IC50 in [1] is 2.32 µM; in experiment [2], greater than 10 µM; in experiment [3] it was 2.81 µM; in experiment [4], 4.89 µM; in [5], 2.7 µM; in experiment [7] it was greater than 10 µM. Also, the IC50 is greater than 10 µM in [8] and 0.012 µM in experiment [9].

As for `COC(=O)[C@H](CC(C)C)NC1=N/C(=C\c2ccc3ncsc3c2)C(=O)N1`, the half-inhibitory concentration (IC50) in experiment [1] came out at 1.54 µM; in experiment [2], 4.1 µM; in experiment [3], 0.903 µM; in [4], 0.821 µM; in [5], 1.7 µM; in [6], 0.219 µM. For the same compound, the IC50 in experiment [7] is greater than 10 µM; in experiment [9], 0.017 µM.

As for `CN1CCC(NC2=N/C(=C\c3ccc4ncsc4c3)C(=O)N2)CC1`, the IC50 is 0.647 µM in experiment [1]; greater than 10 µM in experiment [2]; 7.83 µM in [3]; greater than 10 µM in experiment [4]; 3.86 µM in experiment [5]; greater than 10 µM in [7]. Further, the IC50 in experiment [8] was greater than 10 µM; in [9], 0.078 µM.

For `O=C1NC(N[C@H]2CN3CCC2CC3)=N/C1=C\c1ccc2ncsc2c1`, the IC50 in [1] was 0.199 µM; in experiment [2] it was greater than 10 µM; in [5], 1.75 µM; in [6], 0.04 µM; in experiment [7] it was greater than 10 µM; in experiment [9], 0.011 µM.

In the case of `CO[C@@H]1Cc2ccccc2[C@H]1NC1=N/C(=C\c2ccc3ncsc3c2)C(=O)N1` (racemic), the IC50 is 0.741 µM in experiment [1]; 1.27 µM in experiment [2]; 0.235 µM in experiment [3]; 0.848 µM in experiment [5]; 0.05 µM in experiment [6]; greater than 10 µM in [7]. Further, the IC50 in experiment [8] was greater than 10 µM; in experiment [9], 0.014 µM.

Turning to `Cc1ccc(CNC2=N/C(=C\c3ccc4ncsc4c3)C(=O)N2)o1`, the IC50 in experiment [1] was 1.8 µM; in experiment [2], 2.81 µM; in experiment [3], 1.89 µM; in [4] it was 1.63 µM; in experiment [5] it was 0.722 µM; in [6], 0.127 µM. The IC50 is greater than 10 µM in experiment [7] and 0.024 µM in [9].

`O=C1NC(NCc2nc3ccccc3s2)=N/C1=C\c1ccc2ncsc2c1`: the IC50 in [1] was greater than 10 µM; in experiment [2] it was 9.03 µM; in [3], greater than 10 µM; in experiment [4], greater than 10 µM; in experiment [5], 7.01 µM; in [7] it was greater than 10 µM. Also, the IC50 in experiment [8] was greater than 10 µM; in experiment [9], 0.071 µM.
